From PubChem BioAssay (NCI) come the findings set out here.

Where “and” joins values, the source holds several entries; their conditions need not be identical. Identical values can stand only once.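 Interpolation was linear, between the two tested concentrations surrounding the appropriate level; five concentrations were tested over 48 hours in 96-well plates. GI50: concentration for 50% inhibition of growth. The concentration for full growth arrest is given as TGI.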 A value given as a limit tells only on which side of the number the result lay.

Among the test systems are EKVX NSCLC; MDA-MB-231 breast; 786-0 renal; UO-31 renal; SK-OV-3 ovarian; SK-MEL-28 melanoma; A498 renal; OVCAR-5 ovarian; OVCAR-4 ovarian; HCT-15 colon.
Test in all cases: NCI tumour cell line growth inhibition, 48 h

`CCCC(CCC)C(=O)OCC1(CO)C/C(=C\c2ccc(C(F)(F)F)cc2)C(=O)O1` (configuration not stated): the GI50 in the assay with EKVX NSCLC was 11 µM; with MDA-MB-231 breast, 7.66 µM; in the assay with 786-0 renal, 10.1 µM; with UO-31 renal, 12.2 µM; with SK-OV-3 ovarian, 19.7 µM; in the assay with SK-MEL-28 melanoma it was 15.5 µM. Also, the GI50 in the assay on A498 renal was 0.105 µM; with OVCAR-5 ovarian, 17.1 µM; with OVCAR-4 ovarian it was 17.9 µM; in the assay with HCT-15 colon it was 12.8 µM. Besides, the TGI was found to be 27.2 µM with EKVX NSCLC; 22.9 µM in the assay on MDA-MB-231 breast; 22.5 µM in the assay with 786-0 renal; 26.5 µM in the assay with UO-31 renal; 34 µM with SK-OV-3 ovarian; 29.2 µM with SK-MEL-28 melanoma. Further, the TGI was found to be 10.3 µM in the assay with A498 renal, 31.7 µM in the assay on OVCAR-5 ovarian, 34.4 µM with OVCAR-4 ovarian and 26.9 µM in the assay on HCT-15 colon.

Consider `COc1cc2nncc(SCc3ccc(Cl)c(Cl)c3)c2cc1OC`, for which the TGI in the assay with EKVX NSCLC, with MDA-MB-231 breast, in the assay on 786-0 renal, in the assay on UO-31 renal, with SK-OV-3 ovarian and in the assay with SK-MEL-28 melanoma was more than 100 µM throughout. The TGI in the assay with A498 renal was more than 100 µM; in the assay on OVCAR-5 ovarian it was more than 100 µM; with OVCAR-4 ovarian, more than 91.9 µM; with HCT-15 colon, more than 100 µM.

With `O=c1[nH]nc(-c2ccccc2)c2c(-c3ccccc3)onc12`, the GI50 in the assay on EKVX NSCLC was 1.25 µM; with MDA-MB-231 breast it was 17.7 µM; in the assay with 786-0 renal, 5.47 µM; with UO-31 renal, 0.592 µM; in the assay with SK-OV-3 ovarian it was 0.981 µM; in the assay with SK-MEL-28 melanoma, 0.793 µM. Also, the GI50 with A498 renal was 0.287 µM; in the assay on OVCAR-5 ovarian it was more than 62.8 µM; with OVCAR-4 ovarian it was 2.4 µM; with HCT-15 colon, 0.554 µM. Also, the TGI in the assay with EKVX NSCLC was more than 100 µM; in the assay on MDA-MB-231 breast it was more than 100 µM; in the assay on 786-0 renal it was more than 100 µM; in the assay with UO-31 renal it was more than 100 µM; in the assay on SK-OV-3 ovarian it was 53.6 µM; in the assay with SK-MEL-28 melanoma, more than 100 µM. For the same compound, the TGI in the assay with A498 renal is 3.69 µM; in the assay on OVCAR-5 ovarian, more than 100 µM; in the assay with OVCAR-4 ovarian it was more than 100 µM; in the assay with HCT-15 colon it was more than 100 µM.

For the compound `Nc1nc(Cl)nc2c1ncn2[C@@H]1O[C@H](COS(N)(=O)=O)[C@@H](O)[C@H]1O`, the GI50 with EKVX NSCLC is 0.0232 µM and 0.0301 µM; in the assay on MDA-MB-231 breast, 0.00481 µM; in the assay with 786-0 renal, 0.0214 µM and 0.0266 µM; in the assay with UO-31 renal, 0.0193 µM; in the assay with SK-OV-3 ovarian, 0.0248 µM and 0.026 µM; with SK-MEL-28 melanoma it was 0.0201 µM and 0.0208 µM. In addition, the GI50 in the assay on A498 renal was 0.00943 µM and 0.0148 µM; in the assay on OVCAR-5 ovarian it was 0.00425 µM; with OVCAR-4 ovarian it was 0.00303 µM; with HCT-15 colon, 0.0272 µM and 0.0313 µM. The TGI in the assay on EKVX NSCLC was 0.0688 µM and 0.167 µM; in the assay with MDA-MB-231 breast, 0.0294 µM and 0.0262 µM; with 786-0 renal, 0.0556 µM and 0.0741 µM; in the assay with UO-31 renal, 0.0475 µM; in the assay on SK-OV-3 ovarian it was 0.0739 µM and 0.0666 µM; in the assay with SK-MEL-28 melanoma, 0.05 µM and 0.0511 µM. Besides, the TGI was 0.0254 µM and 0.0309 µM in the assay with A498 renal; 0.0401 µM and 0.0385 µM in the assay on OVCAR-5 ovarian; 0.00929 µM and 0.0324 µM in the assay with OVCAR-4 ovarian; 0.0881 µM and 0.168 µM with HCT-15 colon.

Consider `c1ccc2c(CN3CCC(C4CCN(Cc5cccc6ccccc56)CC4)CC3)cccc2c1`, for which the GI50 was 35.1 µM and > 91.4 µM in the assay with EKVX NSCLC; 3.84 µM and 29.4 µM in the assay on UO-31 renal; 1.48 µM and 3.1 µM with SK-MEL-28 melanoma; 7.34 µM in the assay with A498 renal; 22.3 µM and > 100 µM with OVCAR-5 ovarian; 13.6 µM and 35.9 µM with OVCAR-4 ovarian. For the same compound, the GI50 in the assay with HCT-15 colon is 2.95 µM and 8.46 µM. Also, the TGI in the assay with EKVX NSCLC was more than 100 µM; in the assay on MDA-MB-231 breast, more than 74.1 µM; with 786-0 renal, 32.2 µM and 34.5 µM; in the assay on UO-31 renal it was 16.2 µM and > 100 µM; in the assay with SK-OV-3 ovarian, 75.2 µM and > 100 µM; in the assay on SK-MEL-28 melanoma, 2.85 µM and 8.19 µM. The TGI in the assay with A498 renal was > 72.8 µM and 86 µM; in the assay with OVCAR-5 ovarian, more than 100 µM; in the assay on OVCAR-4 ovarian, 38.2 µM and > 100 µM; with HCT-15 colon, 16.6 µM and > 100 µM.

On to `CCCCN(CCCC)CCC(O)c1cc2ccc(C(F)(F)F)cc2c2cc(C(F)(F)F)ccc12` (configuration not stated), for which the GI50 was 9.3 µM in the assay on EKVX NSCLC; 1.33 µM in the assay with MDA-MB-231 breast; 1.55 µM in the assay with 786-0 renal; 1.89 µM with UO-31 renal; 3.98 µM with SK-OV-3 ovarian; 2.21 µM with SK-MEL-28 melanoma. Also, the GI50 in the assay with A498 renal was 2.02 µM; in the assay on OVCAR-5 ovarian it was 2.97 µM; with OVCAR-4 ovarian, 3.5 µM; in the assay on HCT-15 colon, 2.15 µM. The TGI with EKVX NSCLC is 26.8 µM; in the assay with MDA-MB-231 breast, 3.16 µM; in the assay on 786-0 renal it was 3.2 µM; with UO-31 renal, 12.4 µM; in the assay with SK-OV-3 ovarian, 15.3 µM; in the assay with SK-MEL-28 melanoma, 4.23 µM. Besides, the TGI in the assay on A498 renal is 5.86 µM; with OVCAR-5 ovarian, 12.8 µM; with OVCAR-4 ovarian it was 13.1 µM; in the assay with HCT-15 colon, 7.29 µM.

As for `O=C1OC(OC/C(Br)=C(/Br)COC2OC(=O)C(Cl)=C2Cl)C(Cl)=C1Cl` (configuration not stated), the TGI with EKVX NSCLC was 32.2 µM; in the assay with MDA-MB-231 breast, 17 µM; in the assay with 786-0 renal, 14.1 µM; in the assay on UO-31 renal, 15.6 µM; in the assay on SK-OV-3 ovarian it was more than 55.8 µM; in the assay on SK-MEL-28 melanoma, 23.3 µM. For the same compound, the TGI in the assay with A498 renal came to 38 µM; with OVCAR-5 ovarian, 33 µM; with OVCAR-4 ovarian, 20.1 µM; with HCT-15 colon, 27.1 µM.

Turning to `CNC(=O)c1cncc(/C=C/c2c(Cl)cccc2Cl)c1`, the GI50 was more than 25 µM in the assay with EKVX NSCLC; more than 15.8 µM with MDA-MB-231 breast; more than 25 µM with 786-0 renal; 6.69 µM in the assay with UO-31 renal; more than 25 µM in the assay on SK-OV-3 ovarian; more than 25 µM in the assay with SK-MEL-28 melanoma. In addition, the GI50 with A498 renal was 7.44 µM; in the assay with OVCAR-5 ovarian, more than 25 µM; in the assay with OVCAR-4 ovarian, 21.9 µM; in the assay on HCT-15 colon, more than 22.4 µM. For the same compound, the TGI in the assay with EKVX NSCLC, in the assay with MDA-MB-231 breast, in the assay with 786-0 renal, with UO-31 renal, in the assay with SK-OV-3 ovarian and in the assay on SK-MEL-28 melanoma was more than 25 µM throughout. Also, the TGI in the assay with A498 renal, with OVCAR-5 ovarian, with OVCAR-4 ovarian and with HCT-15 colon was more than 25 µM in each case.
